# Results reported in US12091398B2, “PD-L1 antagonist compound” (ADLAI NORTYE BIOPHARMA CO., LTD., priority 2019, dated 2024).
# Like-named read-outs stand apart in the source and are kept apart here.
# Test system: PD-1/PD-L1 interaction
# Test: Cell based PD-1/PD-L1 NFAT reporter assay
# Parameters: species or system human
# Details: Homo sapiens, PD-1/NFAT-Reporter-Jurkat cells co-cultured with TCR activator/PD-L1-CHO cells, 6 hour incubation, luciferase, calibrated to Atezolizumab 10 nM, read-out: Absolute EC50
# Summary of the method: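 Compounds preincubated 30 min on TCR activator/PD-L1 CHO cells seeded overnight, then co-cultured 6 h with PD-1/NFAT-luciferase Jurkat cells; luminescence read by ONE-Glo. Percent inhibition normalised to 0.1% DMSO vehicle and to atezolizumab (10 nM) as positive control.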
EC50 (6 h),Structure (SMILES),EC50
> 10000 nM,"CN1CCC2(CC1)CCN(C(=O)c1cccc(-c3cccc4c3cnn4Cc3cc(OCc4cncc(C#N)c4)c(CN[C@@H](CO)C(=O)O)cc3Cl)c1Cl)CC2 [Compound 95, (5-chloro-4-((4-(2-chloro-3-(9-methyl-3,9-diazaspiro[5.5]undecane-3-carbonyl)phenyl)-1H-indazol-1-yl)methyl)-2-((5-cyanopyridin-3-yl)methoxy)benzyl)-L-serine]",
,"CN1CCC2(CC1)CCN(c1cccc(-c3cccc4c3cnn4Cc3cc(OCc4cncc(C#N)c4)c(CN[C@@H](CO)C(=O)O)cc3Cl)c1Cl)CC2 [Compound 96, (5-chloro-4-((4-(2-chloro-3-(9-methyl-3,9-diazaspiro[5.5]undecan-3-yl)phenyl)-1H-indazol-1-yl)methyl)-2-((5-cyanopyridin-3-yl)methoxy)benzyl)-L-serine]",2450 nM
